Literature values as cited in patent US20130034537A1, “SIMULTANEOUS CO-TREATMENT OF PHYSICAL AND MENTAL SYMPTOMS RELATED TO SEVERE MENTAL DISORDERS BY A SPECIALLY FERMENTED SOY FORMULATION (FSWW08)” (priority 2010, published 2013).

How the values were obtained:
immunity = details: for Magnitude of immunity, ratio: DHEA = 1
[1] = male steroid hormones
schizophrenic men = details: oral 2 mg
adrenals = details: rats

C[C@]12CCC(O)CC1=CC(O)[C@@H]1[C@@H]2CC[C@]2(C)C(O)CC[C@@H]12 (stereo partly drawn) [Androstenetriol]
Magnitude of immunity, ratio (immunity): 1000

C[C@]12CC[C@H](O)CC1=CC[C@@H]1[C@@H]2CC[C@]2(C)C(=O)CC[C@@H]12 [DHEA, dehydroepiandrosterone]
Magnitude of immunity, ratio (immunity): 1

C[C@]12CCC(=O)C[C@@H]1CC[C@@H]1[C@@H]2CC[C@]2(C)[C@@H](O)CC[C@@H]12 [DHT, dihydrotestosterone]
activity relative to testosterone [1]: 10 times

C[C@]12CCC(O)C[C@@H]1CC[C@@H]1[C@@H]2CC[C@]2(C)[C@@H](O)CC[C@@H]12 (stereo partly drawn) [androstanediol]
potency in mediating immunity compared to DHEA (immunity): 100 times

CCCCC(=O)O[C@H]1CC[C@H]2[C@@H]3CCc4cc(O)ccc4[C@H]3CC[C@]12C [estradiol valeriate]
patients who failed to increase estradiol levels (schizophrenic men): 27%
testosterone (schizophrenic men): reduce

O=c1c(-c2ccc(O)cc2)coc2cc(O)cc(O)c12 [genistein]
DHEA production (adrenals): supporting
aldosterone production (adrenals): inhibiting
corticosterone production (adrenals): inhibiting
